Experimental data taken from ChEMBL document CHEMBL1136212, “Structure-based design of 2-arylamino-4-cyclohexylmethyl-5-nitroso-6-aminopyrimidine inhibitors of cyclin-dependent kinases 1 and 2” (Bioorg Med Chem Lett, 2003).

Assays:
[1] = molecular target: Cyclin-dependent kinase 1 (Homo sapiens, UniProt P06493)
Description: Inhibition of Cyclin-dependent kinase 1 (CDK1) at 12.5 uM ATP

[2] = molecular target: Cyclin-dependent kinase 2 (Homo sapiens, UniProt P24941)

Sequence of Cyclin-dependent kinase 1 (P06493 whole entry): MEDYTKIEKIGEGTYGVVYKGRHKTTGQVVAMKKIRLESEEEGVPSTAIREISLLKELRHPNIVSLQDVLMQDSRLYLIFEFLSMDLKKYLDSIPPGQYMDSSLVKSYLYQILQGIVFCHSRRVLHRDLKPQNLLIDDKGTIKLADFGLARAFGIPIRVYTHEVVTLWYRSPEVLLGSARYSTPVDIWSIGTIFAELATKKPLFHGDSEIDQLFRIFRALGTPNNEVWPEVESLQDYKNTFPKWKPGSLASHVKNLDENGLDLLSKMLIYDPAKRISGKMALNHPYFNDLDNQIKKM

Structure (SMILES) | IC50 [1] | IC50 [2]
COc1ccc(Nc2nc(N)c(N=O)c(OCC3CCCCC3)n2)cc1 | 230 nM | 220 nM
Nc1cc(OCC2CCCCC2)nc(Nc2ccc(S(N)(=O)=O)cc2)n1 | 5300 nM | 2900 nM
Nc1nc(Nc2cccc(Br)c2)nc(OCC2CCCCC2)c1N=O | 800 nM | 500 nM
Nc1nc(Nc2ccc(S(N)(=O)=O)cc2)nc(OCC2CCCCC2)c1N=O | 5 nM | 1.1 nM
NC(=O)c1ccc(Nc2nc(N)cc(OCC3CCCCC3)n2)cc1 | 63000 nM | 59000 nM
CSc1ccc(Nc2nc(N)c(N=O)c(OCC3CCCCC3)n2)cc1 | 220 nM | 120 nM
